Data on five compounds can be found in patent US7923464B2, “Benzimidazole derivatives and their use for modulating the GABAA receptor complex” (Neurosearch A/S, priority 2005, dated 2011).

SMILES strings stand for the structures.

This test concerns the target benzodiazepine modulatory unit (GABAA receptor complex), labelled with 3H-flunitrazepam. Put plainly: In vitro inhibition of 3H-flunitrazepam (3H-FNM) binding. Conditions: cerebral cortex membranes from male Wistar rats; 3H-FNM 1 nM; 40 min at 2° C. On the set-up: species or system rat. The method, then:
In Vitro Inhibition of ^3H-flunitrazepam (^3H-FNM) Binding
The GABA recognition site and the benzodiazepine modulatory unit can selectively be labelled with ^3H-flunitrazepam.
Preparations are performed at 0-4° C. unless otherwise indicated. Cerebral cortex from male Wistar rats (150-200 g) is homogenised for 5-10 sec in 20 ml Tris-HCl (30 mM, pH 7.4) using an Ultra-Turrax homogeniser. The suspension is centrifuged at 27,000×g for 15 min and the pellet is washed three times with buffer (centrifuged at 27,000×g for 10 min). The washed pellet is homogenized in 20 ml of buffer and incubated on a water bath (37° C.) for 30 min to remove endogenous GABA and then centrifuged for 10 min at 27,000×g. The pellet is then homogenized in buffer and centrifuged for 10 min at 27,000×g. The final pellet is resuspended in 30 ml buffer and the preparation is frozen and stored at −20° C.
The membrane preparation is thawed and centrifuged at 2° C. for 10 min at 27,000×g. The pellet is washed twice with 20 ml 50 mM Tris-citrate, pH 7.1 using an Ultra-Turrax homogeniser and centrifuged for 10 min at 27,000×g. The final pellet is resuspended in 50 mM Tris-citrate, pH 7.1 (500 ml buffer per g of original tissue), and then used for binding assays. Aliquots of 0.5 ml tissue are added to 25 μl of test solution and 25 μl of ^3H-FNM (1 nM, final concentration), mixed and incubated for 40 min at 2° C. Non-specific binding is determined using Clonazepam (1 μM, final concentration). After incubation the samples are added 5 ml of ice-cold buffer and poured directly onto Whatman GF/C glass fibre filters under suction and immediately washed with 5 ml ice-cold buffer. The amount of radioactivity on the filters is determined by conventional liquid scintillation counting. Specific binding is total binding minus non-specific binding.
Co is specific binding in control assays, and
Cx is the specific binding in the test assay.
(The calculations assume normal mass-action kinetics).
As usually defined, the IC50 is the concentration that inhibits the measured activity by half. `COc1ccccc1-c1cccc(-n2cnc3cc([C@@H](C)NC(C)=O)ccc32)c1` [Compound 12b, N-{(R)-1-[1-(2′-Methoxy-biphenyl-3-yl)-1H-benzoimidazol-5-yl]-ethyl}-acetamide] returned an IC50 of 60 nM.

The compound `CC(N)c1ccc2c(c1)ncn2-c1cccc(-c2ccccc2)c1` (centres unmarked) [Compound 3a, 1-(1-Biphenyl-3-yl-1H-benzoimidazol-5-yl)-ethylamine] gave an IC50 of 73 nM.

The compound `C[C@@H](N)c1ccc2c(c1)ncn2-c1cccc(-c2ccccc2C#N)c1` [Compound 12r, 3′-[5-((R)-1-Amino-ethyl)-benzoimidazol-1-yl]-biphenyl-2-carbonitrile] yielded an IC50 of 3.7 nM.

For `COc1ccccc1-c1cccc(-n2cnc3cc([C@@H](C)N)ccc32)c1` [Compound 12o, (R)-1-[1-(2′-Methoxy-biphenyl-3-yl)-1H-benzoimidazol-5-yl]-ethylamine], the IC50 was determined as 6.7 nM.

For `COc1ccccc1-c1cccc(-n2cnc3cc([C@H](C)NC(C)=O)ccc32)c1` [Compound 12g, N-{(S)-1-[1-(2′-Methoxy-biphenyl-3-yl)-1H-benzoimidazol-5-yl]-ethyl}-acetamide], the IC50 worked out at 2.6 nM.
